Measured values published in PMC8318231, “Rate-of-Kill (RoK) assays to triage large compound sets for Chagas disease drug discovery: Application to GSK Chagas Box” (PLoS Neglected Tropical Diseases, 2021).
Where two headings read alike, the source gives them in different places.

Columns and labels:
[1] = system: T. cruzi Tulahuen trypomastigotes; experiment: T. cruzi trypomastigote assay (Cell Titer-Glo viability, ATP luminescence); assay type: cell-based, Trypanosoma cruzi; details: for activity in trypomastigotes assay (in words): 48 and 72 hours; for IC50: Trypanosoma cruzi, TULAHUEN; for pIC50 versus trypomastigotes: invariable at the two incubation times tested
Procedure, shortened: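 Tulahuen trypomastigotes from infected LLC-MK2 culture supernatants (days 5–8) plated at 5 × 10^4 per well in DMEM/2% FBS with compound at 5 μM single-shot final or in dose response. Viability by CellTiter-Glo ATP luminescence after 10 min at room temperature, normalised to no-cell (100%) and DMSO (0%) controls.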

TcCYP51 = details: cited from earlier work; for CYP51 mean: TcCYP51 enzyme inhibition, figure 1B, ref original boxes paper; for CYP51 pIC50: formerly reported
[2] = system: T. cruzi intracellular amastigotes in H9c2 cells; experiment: Rate-of-Kill (RoK) high-content imaging assay, amastigotes per cell (AM/CELL) and curve descriptors; assay type: cell-based, Trypanosoma cruzi; design: key to ME_24h / ME_48h / ME_72h: % reduction in parasite burden (cidal response); t50pct_MCC50 / t50pct_Cmax: unit not given here; details: for ME_24h: 24h; for ME_48h: 48h; for ME_72h: 72h; for MCCE (Minimal Compound Concentration with Effect): lowest concentration that decreases AUC of AM/CELL versus time by at least 50% vs infected control; for MCC50 (Minimal Cidal Concentration 50%): lowest concentration that reduces 50% of the parasite load measured at zero time; for AM/CELL NORM: figure 4 A; for Emax: read-out: ME 24h (maximum effect at 24 hours, intracellular amastigotes); for t50%_Cmax / tlag_Cmax / t50pct_Cmax: at Cmax; for ME_24h (%): maximum effect at 24 h; for ME_24h (%) / ME_48h (%) / ME_72h (%): RoK assay; for ME_48h (%): maximum effect at 48 h; for ME_72h (%): maximum effect at 72 h; for t50pct_Cmax (t50%_Cmax): time to reduce 50% of initial parasite load at maximum concentration
Experimental: For this high-content intracellular imaging assay, H9c2 cells were seeded in 225 cm^2 T- FLASK in DMEM with 10% FBS for 4 h to allow attachment. T. cruzi trypomastigotes, collected at days 5 to 8 after infection from LLC-MK2 parasite infected cultures, were allowed to swim out for 4 h at 37°C from a centrifuged pellet (1,600 x g / 10 min). Trypomastigotes were then collected and counted in a CASY Cell Counter using the 60 μm capillary. Trypomastigotes, in supplemented DMEM, were added to H9c2 cultures in a multiplicity of infection (MOI) of 8 and incubated for 18 h. Cells were washed once with PBS before incubation of the infected H9c2 monolayer with trypsin (Life-Technologies) to detach cells from the flask. Cells were counted in a CASY Cell Counter, using the 150 μm capillary, and their density set at 5 x 10^4 cells/mL in supplemented DMEM. Infected H9c2 were dispensed into 384-well plates at 50 μL per well using a Multidrop Combi dispenser. Control wells used to determine a 100% parasitic growth (full 6th column of each plate) were left untreated, whereas not infected cells were added in the control wells used as 0% parasite growth (or 100% parasite growth inhibition; full 18th column of each plate). The four plates corresponding to each RoK assay were predispensed for the same mother plate. […] Cultures were then fixed and stained with 50 μL per well of a PBS solution containing 4% formaldehyde and 2 μM DRAQ5 DNA dye (BioStatus, UK). Then plates were read in a PerkinElmer Opera Phenix using a 20x objective, 3 fields per well. DRAQ5 signal was detected using 640 nm excitation laser and a 690/50 nm emission detection filter. Automated image analysis was performed with a script developed on Acapella High Content Imaging and Analysis Software (PerkinElmer). Two outputs were provided for each sample well: (1) number of host cells nuclei to determine drug-related cytotoxicity (aka H9c2) and (2) number of amastigotes per cell as infection level measurement (aka AM/CELL). Each output is plotted as a time course for each compound at every concentration. This assay was adapted from Alonso-Padilla et al. and Peña et al..
To identify and classify the different compounds, the number of amastigotes per cell (AM/CELL) raw data obtained in rate of kill assay are normalised using the average of C1 (infected cells) at time 4 hours as 0% effect and the average of C2 (non-infected cells) for each time as 100% effect, according to the following Eq 1: %CIDALRESPONSE=100*[Avg_C14h-RawData]/[Avg_C14h-Avg_C2] (1)
• ME (Maximum Effect) is the maximum percentage of parasite burden reduction reached by any compound concentration. Compounds that decrease the initial parasite load will show a positive value of ME, whereas compounds that allow the progression of infection will render a negative ME value. […] It is calculated for the MCC50 (t50%_MCC50) and for the maximum concentration (t50%_Cmax). […] The value of this parameter is not either interpolated or extrapolated, and it refers to the first experimental time-course point at which a 50% of effect is reached or exceeded. • tlag defines the time elapsed for one particular concentration to reduce parasite burden between two consecutive points at any moment of the time course. It is calculated for the MCC50 (tlag_MCC50) and for the maximum concentration (tlag_Cmax). The value of this parameter is not either interpolated or extrapolated, and it refers to the first experimental time-course point of a positive slope in the normalised plot (i.e. %Cidal_Response). • Cmin_Tox (Minimal CytoToxic Concentration) is the lowest compound concentration that is reducing the number of host mammalian cells below 50% of initial cell density. Cytotoxic compounds may mislead a bona fide antiparasitic action.

[3] = 48 h, read-out: Trypomastigotes pIC50 48 hours (converted)
[4] = 72 h, read-out: Trypomastigotes pIC50 72 hours (converted)
[5] = Trypanosoma cruzi, H9c2, maximum percentage of parasite burden reduction reached by any concentration, 24 hours
[6] = 72 hours, plotted values, censored values given without sign, read-out: 72 pIC50 (trypomastigotes, raw data of Fig 1D) (converted)
[7] = trypomastigote assay, 48 h, figure 1A, read-out: 48 pIC50 (converted)
[8] = trypomastigote assay, 72 h, figure 1A, read-out: 72 pIC50 (converted)

Structure (SMILES) | CYP51 pIC50 (TcCYP51) | ME (maximum effect) in RoK assay (in words) [2] | tlag (in words) [2] | ME_24h ([2]; figure 5) | ME_48h ([2]; figure 5) | ME_72h ([2]; figure 5) | MCC50 ([2]; RoK curve descriptor) [µM] | MCCE ([2]; RoK curve descriptor) [µM] | AM/CELL NORM ([2]; Time 4) | AM/CELL NORM ([2]; Time 24) | AM/CELL NORM ([2]; Time 48) | AM/CELL NORM ([2]; Time 72) | t50%_Cmax [2] [h] | tlag_Cmax [2] [h] | t50pct_Cmax ([2]; figure 5) | tlag_Cmax ([2]; figure 5) | t50%_MCC50 ([2]; at MCC50) [h] | tlag_MCC50 ([2]; at MCC50) [h] | t50pct_MCC50 ([2]; at MCC50, figure 5) | tlag_MCC50 ([2]; at MCC50, figure 5) | other results
O=C(Cn1ccnc1[N+](=O)[O-])NCc1ccccc1 [Benznidazole, benznidazole, reference compound] | < 4 | higher ME values close to 100% | short t-lag values | 49.8205 | 84.8832 | 90.745 | 31.2 | 3.9 | 14.6109 | 40.5448 | 53.9104 | 66.8038 | 35.0 | 5.5 | 34 | 4 | 46.2 | 8.6 | 46 | 7.333 | activity in trypomastigotes assay (in words) [1]: active; IC50 [1, 3]: 6310 nM; IC50 [1, 4]: 5010 nM; pIC50 versus trypomastigotes [1]: 5.3; CYP51 mean (TcCYP51): 4.3; MCCE (Minimal Compound Concentration with Effect) ([2]; Fig 2C, average, listed as BNZ): 3.9 µM; MCC50 (Minimal Cidal Concentration 50%) ([2]; Fig 2C, average, listed as BNZ): 31.2 µM; t50pct_MCC50 (t50%_MCC50) ([2]; Fig 2C, average, time to reduce 50% of initial parasite load at MCC50, listed as BNZ): 46.2 h; Emax at 50 µM ([2]; Trypanosoma cruzi, H9c2, BNZ at 50 μM, 48 hours, read-out: maximum effect): 100%; Emax [2, 5]: 49.2%; MCCE ([2]; figure 5): 4.172; MCC50 ([2]; figure 5, in µM): 33.802; ME_24h (%) [2]: 49.8%; ME_48h (%) [2]: 84.9%; ME_72h (%) [2]: 90.7%
CC1CS(=O)(=O)CCN1/N=C/c1ccc([N+](=O)[O-])o1 (centres unmarked) [Nifurtimox, nifurtimox, reference compound] | < 4 | higher ME values close to 100% | short t-lag values | 79.7791 | 100.284 | 96.6694 | 7.5 | 1.9 | -6.175 | 78.541 | 98.3875 | 101.766 | 24.0 | 4.0 | 25.3333 | 4 | 48.2 | 8.9 | 48.2222 | 8.889 | activity in trypomastigotes assay (in words) [1]: active; IC50 [1, 3]: 1260 nM; IC50 [1, 4]: 1260 nM; IC50 [1, 6]: 1260 nM; IC50 [1, 7]: 1260 nM; IC50 [1, 8]: 1260 nM; pIC50 versus trypomastigotes [1]: 5.9; CYP51 mean (TcCYP51): 4.3; t50pct_Cmax (t50%_Cmax) ([2]; Fig 2C, average): 24 h; Emax [2, 5]: 81.7%; MCCE ([2]; figure 5): 1.852; MCC50 ([2]; figure 5, in µM): 7.545; ME_24h (%) [2]: 79.8%; ME_48h (%) [2]: 100.3%; ME_72h (%) [2]: 96.7%
CC[C@@H]([C@H](C)O)n1ncn(-c2ccc(N3CCN(c4ccc(OC[C@@H]5CO[C@@](Cn6cncn6)(c6ccc(F)cc6F)C5)cc4)CC3)cc2)c1=O [Posaconazole, reference compound] | 7.3 | lower ME | longer tlag_MCC50 and tlag_Cmax values | -76.4226 | -0.321 | 50.6685 | 6.2 | 0.003 | 5.09 | -32.2625 | -0.614 | 48.3608 | 65.9 | 24.0 | 65.8667 | 24 | 54.2 | 29.3 | 61.3333 | 46.4 | activity in trypomastigotes assay (in words) [1]: inactive; IC50 [1, 3]: > 50100 nM; IC50 [1, 4]: > 50100 nM; IC50 [1, 6]: > 50100 nM; IC50 [1, 7]: > 50100 nM; IC50 [1, 8]: > 50100 nM; 72 pIC50 ([1]; trypomastigote assay, 72 h, figure 1B): < 4.3; MCCE (Minimal Compound Concentration with Effect) ([2]; Fig 2C, average): 0.003 µM; MCC50 (Minimal Cidal Concentration 50%) ([2]; Fig 2C, average, listed as POS): 6.2 µM; t50pct_Cmax (t50%_Cmax) ([2]; Fig 2C, average): 65.9 h; Emax [2, 5]: -63%; MCCE ([2]; figure 5): 0.002879; MCC50 ([2]; figure 5, in µM): 23.7078; ME_24h (%) [2]: -76.4%; ME_48h (%) [2]: -0.32%; ME_72h (%) [2]: 50.7%
Cc1sc(C)c(C(F)(F)F)c1CNCCCNc1cc(=O)c2ccccc2[nH]1.Cl [TCMDC-140766] | 4.7 | high ME at 24 hours and 72 hours | short tlag times | 54.6006 | 64.1651 | 71.5778 | 5.6 | 0.6 | 7.643 | 58.2122 | 67.454 | 69.5653 | 24.0 | 4.0 | 24 | 4 | 72.0 | 4.0 | 72 | 4 | Trypomastigotes pIC50 48 hours ([1]; 48 hours incubation, pIC50 = -log10 IC50 in molar units): 4.9; Trypomastigotes pIC50 72 hours ([1]; 72 hours incubation, pIC50 = -log10 IC50 in molar units): 5.3; MCCE ([2]; figure 5): 0.6173; MCC50 ([2]; figure 5, in µM): 5.556; ME_24h (%) [2]: 54.6%; ME_48h (%) [2]: 64.2%; ME_72h (%) [2]: 71.6%; ME 24h (maximum effect at 24 hours, intracellular amastigotes) ([2]; maximum percentage of parasite burden reduction reached by any concentration, 24 hours): 58.2122%
